Results taken from paper PMC11247503 (Journal of Medicinal Chemistry, 2024).
Counter-ions that a name gives are not always drawn. Like-named read-outs stand apart in the source and are kept apart here.

Target: T1, mouse Spns2 (Mus musculus, UniProt Q91VM4)
T1 construct: expressed in transfected cells; host or cells: HeLa cells (G418-resistant pools)
T1 sequence (Q91VM4 1-549): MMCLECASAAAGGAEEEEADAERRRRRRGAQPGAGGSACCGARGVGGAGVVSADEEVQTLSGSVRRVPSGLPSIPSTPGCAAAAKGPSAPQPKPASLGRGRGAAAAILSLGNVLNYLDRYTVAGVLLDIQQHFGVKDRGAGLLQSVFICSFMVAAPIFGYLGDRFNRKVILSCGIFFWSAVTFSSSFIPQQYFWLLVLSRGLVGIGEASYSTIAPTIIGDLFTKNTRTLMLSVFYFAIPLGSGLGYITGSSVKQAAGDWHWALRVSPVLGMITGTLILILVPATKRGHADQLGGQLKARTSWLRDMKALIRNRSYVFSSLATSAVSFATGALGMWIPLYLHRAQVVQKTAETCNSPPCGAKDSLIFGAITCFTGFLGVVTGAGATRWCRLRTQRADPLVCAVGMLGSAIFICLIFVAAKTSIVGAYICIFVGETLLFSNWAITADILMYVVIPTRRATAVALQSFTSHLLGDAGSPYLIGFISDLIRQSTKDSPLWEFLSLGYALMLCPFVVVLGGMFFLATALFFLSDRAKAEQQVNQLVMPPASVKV
Assay: HeLa cell S1P release assay (Spns2 inhibition)
Assay type: cell-based
Details: for inhibition at 1 µM / inhibition at 0.3 µM: HeLa; for inhibition at 1 µM: read-out: %Inhib. (Spns2 inhibition, percent decrease in S1P secretion relative to control); for inhibition at 0.3 µM: 0.3 μM inhibitor (Figure 5), read-out: % Inhibition, tail homologation study
Protocol: With a library of analogs of SLB1122168 containing phenylurea, phenylcarbamate, and benzamide as bioisostere of the benzoxazole, we investigated their potential in inhibiting S1P transport using a HeLa cell assay.[36]−[38],[43] Briefly, in this assay, Spns2 is overexpressed whereas the S1P-degrading enzymes (lyase or phosphatases) were blocked with inhibitors.[44],[45] Inhibition of S1P transport is determined by measuring the amount of S1P in the buffer using LC-MS.
This assay was conducted as reported by Kharel et al.[43] Briefly, compounds were assessed in a HeLa cell assay at a 1 μM test concentration, unless noted otherwise. HeLa cells were transfected with a pcDNA3.1 plasmid encoding mouse Spns2, and pools of cells resistant to G418 were selected. S1P catabolic pathways were suppressed by the addition of 4-deoxypyridoxine (1 mM), NaF (2 mM), and Na3VO4 (0.2 mM). After growing cells to near confluence on 12-well tissue culture dishes, growth media was removed, inhibitors were introduced in release media (serum free medium containing 0.2% fatty acid free BSA), and the cells were incubated for 16–18 h at 37 °C. The BSA with bound S1P was concentrated from the release media by TFA-driven precipitation after addition of the d7-S1P internal standard, the S1P extracted from the protein pellet, and quantified by LC-MS/MS. Lower levels of S1P release into the media indicated greater degrees of Spns2 inhibition. Inhibition is reported as the percent decrease in S1P release relative to the control where no inhibitor was introduced.

[1] = 1 μM inhibitor, HeLa cells, S1P in media by LC-MS/MS

| Compound | inhibition at 1 µM [1] | further results |
| --- | --- | --- |
| 2-Aminoethyl (4-Decylphenyl)carbamate Hydrochloride [8a] | – | %Inhib. (Spns2 inhibition, percent decrease in S1P secretion relative to control) [1]: 44 ± 7% |
| CCCCCCCCCCc1ccc(C(=O)N2CCNCC2C)cc1 (racemic) [(±)-4j, (4-Decylphenyl)(2-methylpiperazin-1-yl)methanone Hydrochloride] | 61 ± 2% | – |
| CCCCCCCCCCc1ccc(C(=O)NCCCN)cc1 [4a, N-(3-Aminopropyl)-4-decylbenzamide Hydrochloride] | 39 ± 9% | – |
| CCCCCCCCCCc1ccc(C(=O)NC2CNC2)cc1 [4b, N-(Azetidin-3-yl)-4-decylbenzamide 2,2,2-Trifluoroacetate] | – | inhibition at 1 µM: 77 ± 1% |
| CCCCCCCCCCc1ccc(C(=O)NC2CCNCC2)cc1 [4g, 4-Decyl-N-(piperidin-4-yl)benzamide Hydrochloride] | 24 ± 2% | – |
| CCCCCCCCCCc1ccc(C(=O)N2CCNCC2)cc1 [4h, (4-Decylphenyl)(piperazin-1-yl)methanone Hydrochloride] | 68 ± 5% | – |
| CCCCCCCCCCc1ccc(C(=O)N2CC3CCC(C2)N3)cc1 [4k, (3,8-Diazabicyclo[3.2.1]octan-3-yl)(4-decylphenyl)methanone Hydrochloride] | 0% | – |
| CCCCCCCCCCc1ccc(C(=O)N2CC3CC2CN3)cc1 (stereo not drawn) [4l, (2,5-Diazabicyclo[2.2.1]heptan-2-yl)(4-decylphenyl)methanone Hydrochloride] | 25 ± 2% | – |
| CCCCCCCCCCc1ccc(NC(=O)OC2CCNCC2)cc1 [8f, Piperidin-4-yl (4-Decylphenyl)carbamate Hydrochloride] | 51% | – |
| CCCCCCCCCCc1ccc(NC(=O)NCCCN)cc1 [11a, 1-(3-Aminopropyl)-3-(4-decylphenyl)urea Hydrochloride] | 53% | – |
| CCCCCCCCCCc1ccc(NC(=O)NC2CNC2)cc1 [11b, 1-(Azetidin-3-yl)-3-(4-decylphenyl)urea 2,2,2-Trifluoroacetate] | 59 ± 1% | – |
| CCCCCCCCCCc1ccc(NC(=O)N2CCC(N)CC2)cc1 [11g, 4-Amino-N-(4-decylphenyl)piperidine-1-carboxamide Hydrochloride] | 59 ± 2% | – |
| CCCCCCCCCCc1ccc(NC(=O)NC2CCNCC2)cc1 [11h, 1-(4-Decylphenyl)-3-(piperidin-4-yl)urea Hydrochloride] | 34 ± 9% | – |
| CCCCCCCCCCc1ccc(NC(=O)N2CC3CC2CN3)cc1 (stereo not drawn) [11j, N-(4-Decylphenyl)-2,5-diazabicyclo[2.2.1]heptane-2-carboxamide Hydrochloride] | 35% | – |
| CCCCCCCCCCc1ccc(NC(=O)N2CC3CCC(C2)N3)cc1 [11k, N-(4-Decylphenyl)-3,8-diazabicyclo[3.2.1]octane-3-carboxamide Hydrochloride] | 77% | – |
| CCCCCCCCCCc1ccc(NC(=O)N2CCCNCC2)cc1 [11m, N-(4-Decylphenyl)-1,4-diazepane-1-carboxamide Hydrochloride] | 72 ± 1% | – |
| CCCCCCCCCCc1ccc(C(=O)N(C)CCCN)cc1 [13a, N-(3-Aminopropyl)-4-decyl-N-methylbenzamide Hydrochloride] | 39 ± 4% | – |
| CCCCCCCCCCc1ccc(C(=S)NCCCN)cc1 [15a, N-(3-Aminopropyl)-4-decylbenzothioamide Hydrochloride] | 23 ± 1% | – |
| CCCCCCCCCCc1ccc(N(C)C(=O)N2CCNCC2)cc1 [17a, N-(4-Decylphenyl)-N-methylpiperazine-1-carboxamide Hydrochloride] | 13 ± 4% | – |
| CCCCCCCCCCc1ccc(N(C)C(=O)N2CC3CC2CN3)cc1 (stereo not drawn) [17b, N-(4-Decylphenyl)-N-methyl-2,5-diazabicyclo[2.2.1]heptane-2-carboxamide Hydrochloride] | 24 ± 9% | – |
| CCCCCCCCCCc1ccc(N(C)C(=O)N2CC3CCC(C2)N3)cc1 [17c, N-(4-Decylphenyl)-N-methyl-3,8-diazabicyclo[3.2.1]octane-3-carboxamide Hydrochloride] | 18 ± 1% | – |

| Compound | inhibition at 1 µM [1] | further results |
| --- | --- | --- |
| CCCCCCCCCCc1ccc(NC(=O)N2CCN(C)CC2)cc1 [18a, N-(4-Decylphenyl)-4-methylpiperazine-1-carboxamide Hydrochloride] | 43 ± 4% | – |
| CCCCCCCCCCc1ccc(NC(=O)N2CC[N+](C)(C)CC2)cc1 [18b, 4-((4-Decylphenyl)carbamoyl)-1,1-dimethylpiperazin-1-ium Iodide] | 5 ± 3% | – |
| CCCCCCc1ccc(NC(=O)N2CCNCC2)cc1 [20a, N-(4-Hexylphenyl)piperazine-1-carboxamide Hydrogen Chloride] | – | inhibition at 0.3 µM (HeLa cells): 19 ± 2% |
| CCCCCCCc1ccc(NC(=O)N2CCNCC2)cc1 [20b, N-(4-Heptylphenyl)piperazine-1-carboxamide Hydrogen Chloride] | – | inhibition at 0.3 µM (HeLa cells): 28 ± 5% |
| CCCCCCCCc1ccc(NC(=O)N2CCNCC2)cc1 [20c, N-(4-Octylphenyl)piperazine-1-carboxamide Hydrogen Chloride] | – | inhibition at 0.3 µM (HeLa cells): 48 ± 7% |
| CCCCCCCCCc1ccc(NC(=O)N2CCNCC2)cc1 [20d, N-(4-Nonylphenyl)piperazine-1-carboxamide Hydrogen Chloride] | – | inhibition at 0.3 µM (HeLa cells): 61 ± 4% |
| CCCCCCCCCCCc1ccc(NC(=O)N2CCNCC2)cc1 [20e, N-(4-Undecylphenyl)piperazine-1-carboxamide Hydrogen Chloride] | – | inhibition at 0.3 µM (HeLa cells): 76 ± 5% |
| CCCCCCCCCCCCc1ccc(NC(=O)N2CCNCC2)cc1 [20f, N-(4-Dodecylphenyl)piperazine-1-carboxamide Hydrogen Chloride] | – | inhibition at 0.3 µM (HeLa cells): 57 ± 1% |
| CCCCCCCCCCCCCc1ccc(NC(=O)N2CCNCC2)cc1 [20g, N-(4-Tridecylphenyl)piperazine-1-carboxamide Hydrogen Chloride] | – | inhibition at 0.3 µM (HeLa cells): 27 ± 12% |
| CCCCCCCCCCc1ccc(C(=O)N[C@@H]2CCNC2)cc1.Cl [(R)-4c, (R)-4-Decyl-N-(pyrrolidin-3-yl)benzamide Hydrochloride] | 61 to 66% | %Inhib. (Spns2 inhibition, percent decrease in S1P secretion relative to control) (1 μM inhibitor, HeLa cells, S1P in media by LC-MS/MS, 1 µM): 66 ± 1% |
| CCCCCCCCCCc1ccc(C(=O)N[C@@H]2CCCNC2)cc1 [(R)-4e, (R)-4-Decyl-N-(piperidin-3-yl)benzamide Hydrochloride] | 73 ± 1% | – |
| CCCCCCCCCCc1ccc(NC(=O)O[C@@H]2CCNC2)cc1 [(R)-8b, (R)-Pyrrolidin-3-yl (4-Decylphenyl)carbamate Hydrochloride] | 68 ± 1% | – |
| CCCCCCCCCCc1ccc(NC(=O)O[C@@H]2CCCNC2)cc1 [(R)-8d, (R)-Piperidin-3-yl (4-Decylphenyl)carbamate Hydrochloride] | 45 ± 3% | – |
| CCCCCCCCCCc1ccc(NC(=O)N[C@@H]2CCNC2)cc1 [(R)-11c, (R)-1-(4-Decylphenyl)-3-(pyrrolidin-3-yl)urea Hydrochloride] | 49% | – |
| CCCCCCCCCCc1ccc(NC(=O)N[C@@H]2CCCNC2)cc1 [(R)-11e, (R)-1-(4-Decylphenyl)-3-(piperidin-3-yl)urea Hydrochloride] | 86% | – |
| CCCCCCCCCCc1ccc(NC(=O)N2CCN[C@H](C)C2)cc1 [(R)-11l, (R)-N-(4-Decylphenyl)-3-methylpiperazine-1-carboxamide Hydrochloride] | ≥ 80% | – |
| CCCCCCCCCCc1ccc(C(=O)N(C)[C@@H]2CCNC2)cc1 [(R)-13b, (R)-4-Decyl-N-methyl-N-(pyrrolidin-3-yl)benzamide Hydrochloride] | 21 ± 1% | – |
| CCCCCCCCCCc1ccc(C(=O)N(C)[C@@H]2CCCNC2)cc1 [(R)-13c, (R)-4-Decyl-N-Methyl-N-(piperidin-3-yl)benzamide Hydrochloride] | 51 ± 2% | – |
| CCCCCCCCCCc1ccc(C(=S)N[C@@H]2CCNC2)cc1 [(R)-15b, (R)-4-Decyl-N-(pyrrolidin-3-yl)benzothioamide Hydrochloride] | 33 ± 3% | – |
| CCCCCCCCCCc1ccc(C(=S)N[C@@H]2CCCNC2)cc1 [(R)-15c, (R)-4-Decyl-N-(piperidin-3-yl)benzothioamide Hydrochloride] | 47% | – |
